# US6903132B2, “Non-peptide GnRH agents, pharmaceutical compositions and methods for their use” (Agouron Pharmaceuticals, Inc., priority 2002, dated 2005)
# Tests used:
# [1] = Pharmacokinetics in female rats; format: in vivo, rat; conditions: for FR Fp.o.: 20 mg/kg as 10 mg/ml solution in 10% DMSO 10% cremophor 80% saline, AUCp.o./AUCi.v.; for Tmax: rat, plasma, po, dose and vehicle per footnote, read-out: FR Tmax hr
# Description: Rats (male or female, 200-225 g) are prepared with indwelling jugular vein cannula as described by Harms et al., Applied Physiol. 36:391-398 (1974), and allowed to recover overnight with free access to the standard vivarium chow and water. […] […] The blood samples are withdrawn at specific times, plasma is immediately separated and compound extracted with ethyl acetate. The samples are analyzed by LC-MS using 30-90% gradient of ACN in 50 mM ammonium acetate.
# (§1) The pharmacokinetic parameters are calculated using WinNonlin software (Scientific Consulting Inc.). The bioavailability is calculated as AUCp.o./AUCi.v., where AUCp.o. and AUCi.v. are areas under the plasma concentration-time curve after oral and i.v. administration, respectively.
# [2] = In vitro metabolism: disappearance of parent compound in liver microsomes (male rat); format: in vitro ADME; conditions: 5 uM compound, 0.5 mg/ml microsomal protein, 2 mM NADPH, 30 minutes at 37° C.
# Description: Human, rat, dog, and monkey liver microsomes are isolated by differential centrifugation. Specimens of human liver were obtained from the International Institute for the Advancement of Medicine (Scranton, Pa.). The disappearance of the parent compound is studied in a mixture containing 5 uM compound, 0.5 mg/ml microsomal protein, and 2 mM NADPH in 50 mM K Phosphate buffer, pH 7.4. Samples are incubated for 30 minutes at 37° C. The reaction is terminated by the addition of acetonitrile and compounds analyzed by LC-MS as described above.
# [3] = Pharmacokinetics in male rats; format: in vivo, rat; conditions: for M T1/ hr: male rats (MR); for M T1/ hr / Tmax: dosed orally at 50 mg/kg; for M Fp. / Tmax: male rats; for M Fp.: oral bioavailability, AUCp.o./AUCi.v.; for Tmax: rat, plasma, po, read-out: MR Tmax hr
# Description: Rats (male or female, 200-225 g) are prepared with indwelling jugular vein cannula as described by Harms et al., Applied Physiol. 36:391-398 (1974), and allowed to recover overnight with free access to the standard vivarium chow and water. The compounds are administered to female rats at 5 mg/kg i.v. and 10 mg/kg p.o. as solutions in 10% DMSO+10% cremophor+80% saline or 10% cremophor+90% saline. The male rats are dosed orally at 50 mg/kg in the vehicles specified in Table 3. The blood samples are withdrawn at specific times, plasma is immediately separated and compound extracted with ethyl acetate. The samples are analyzed by LC-MS using 30-90% gradient of ACN in 50 mM ammonium acetate.
# as §1
FR Fp.o. [1] [%^1],Tmax [1] [h],Male t % p. 30′ [2] [%],M T1/ hr [3] [h],M Fp. [3] [%],Tmax [3] [h],Compound
19,1,99,1.3,1,1,"Cc1cc2c(cc1Cc1ccc(C(=O)NNc3cc(C)c4c(C)nn(C)c4n3)o1)C(C)(C)CCC2(C)C [Example C1, 5-[(3,5,5,8,8-Pentamethyl-5,6,7,8-tetrahydro-2-naphthalenyl)methyl]-N′-(1,3,4-trimethyl-1H-pyrazolo[3,4-b]pyridin-6yl)-2-furohydrazide]"
15,2,97,1.2,4,1,"COc1cc2c(cc1Cc1ccc(C(=O)NNc3cc(C)c4c(C)nn(C)c4n3)o1)C(C)(C)CCC2(C)C [Example C2, 5-[(3-Methoxy-5,5,8,8-tetramethyl-5,6,7,8-tetrahydro-2-naphthalenyl)methyl]-N′-(1,3,4-trimethyl-1H-pyrazolo[3,4-b]pyridin-6-yl)-2-furohydrazide]"
